Test results from US7713971B2, “1,2,4-triazine derivatives, preparation and use thereof in human therapy” (Pierre Fabre Medicament, priority 2005, dated 2010).
Read-outs that look alike come from different tables or passages of the source.

Assays:
[1] = molecular target: T1, human PPARα (Homo sapiens, UniProt Q07869); experiment: Reporter gene transactivation, hPPAR-GAL4 alpha; type: cell-based; conditions: transfected Cos-7 cells, Gal-4 luciferase reporter, 24 hours treatment
T1 construct: expressed in transfected cells; host or cells: Cos-7 cells (ATCC, CRL-1651)
T1 sequence (Q07869 239-466 limits assumed): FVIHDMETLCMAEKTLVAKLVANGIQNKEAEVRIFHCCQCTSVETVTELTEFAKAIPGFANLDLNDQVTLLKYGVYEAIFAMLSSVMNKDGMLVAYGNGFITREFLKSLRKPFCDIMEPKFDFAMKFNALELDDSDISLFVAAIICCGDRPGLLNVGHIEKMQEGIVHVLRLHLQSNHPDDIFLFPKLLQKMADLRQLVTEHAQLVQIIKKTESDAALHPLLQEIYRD

[2] = molecular target: T2, human PPARγ (Homo sapiens, UniProt P37231); experiment: Reporter gene transactivation, hPPAR-GAL4 gamma; type: cell-based; conditions: transfected Cos-7 cells, Gal-4 luciferase reporter, 24 hours treatment
T2 construct: expressed in transfected cells; host or cells: Cos-7 cells (ATCC, CRL-1651)
T2 sequence (P37231 238-503 limits assumed): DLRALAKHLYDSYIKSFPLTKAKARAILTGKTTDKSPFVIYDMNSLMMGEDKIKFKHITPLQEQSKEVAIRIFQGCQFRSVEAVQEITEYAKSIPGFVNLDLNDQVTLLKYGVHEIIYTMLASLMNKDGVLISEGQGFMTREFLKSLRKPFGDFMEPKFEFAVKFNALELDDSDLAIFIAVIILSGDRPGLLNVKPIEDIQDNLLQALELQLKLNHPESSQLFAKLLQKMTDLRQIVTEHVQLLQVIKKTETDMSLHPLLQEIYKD

[3] = tested on: insulin-resistant male rat (Ico: ZUCKER-fa/fa); experiment: Normalization of metabolic parameters (cholesterol, plasma triglycerides) in insulin-resistant rat; type: in vivo; conditions: oral route, once per day for four days, Zucker fa/fa rat unfed 16-18 hours; for change in vivo at 10 mg/kg / change in vivo at 2.5 mg/kg: 96 h
Procedure: Normalization of metabolic parameters (cholesterol, plasma triglycerides) in an insulin-resistant male rat (Ico: ZUCKER-fa/fa), unfed for 16-18 hours, after treatment by oral route, once per day for four days, with the compounds to be evaluated or their administration vehicle.
These metabolic parameters are measured by spectrophotometry at the beginning and the end of each animal's treatment.

[4] = at 10 mg/kg, read-out: Plasma cholesterol
[5] = at 10 mg/kg, read-out: Plasma triglycerides

Structure (SMILES) | EC50 [1] | EC50 [2] | other results
CCCCCCCn1nc(OCCc2cccc(OC(C)(C)C(=O)OCC)c2)c(=O)n(C)c1=O [Example 2, Ethyl 2-{3-[2-(2-heptyl-4-methyl-3,5-dioxo-2,3,4,5-tetrahydro-[1,2,4]triazin-6-yloxy)-ethyl]-phenoxy}-2-methyl-propionate] | > 10 µM | ~10 µM | 
CCCCCCCn1c(=O)c(OCCCc2cccc(OC(C)(C)C(=O)OCC)c2)nn(C)c1=O [Example 7, Ethyl 2-{3-[3-(4-heptyl-2-methyl-3,5-dioxo-2,3,4,5-tetrahydro-[1,2,4]triazin-6-yloxy)-propyl]-phenoxy}-2-methyl-propionate] | 0.3 to 1 µM | 1 to 3 µM | 
CCCCCCCn1c(=O)c(OCCCc2cccc(OC(C)(C)C(=O)OCC)c2)nn(CCCC(F)(F)F)c1=O [Example 8, Ethyl 2-(3-{3-[4-heptyl-3,5-dioxo-2-(4,4,4-trifluoro-butyl)-2,3,4,5-tetrahydro-[1,2,4]triazin-6-yloxy]-propyl}-phenoxy)-2-methyl-propionate] | ~0.3 µM | 3 to 10 µM | 
CCCCn1c(=O)c(OCCCCCc2cccc(OC(C)(C)C(=O)O)c2)nn(C)c1=O [Example 12, 2-{3-[5-(4-Butyl-2-methyl-3,5-dioxo-2,3,4,5-tetrahydro-[1,2,4]triazin-6-yloxy)-pentyl]-phenoxy}-2-methyl-propionic Acid] | ~0.03 µM | 1 to 3 µM | 
CCCCCCCn1c(=O)c(OCCCCCc2cccc(OC(C)(C)C(=O)OCC)c2)nn(CCCC(F)(F)F)c1=O [Example 18, Ethyl 2-(3-{5-[4-heptyl-3,5-dioxo-2-(4,4,4-trifluoro-butyl)-2,3,4,5-tetrahydro-[1,2,4]triazin-6-yloxy]-pentyl}-phenoxy)-2-methyl-propionate] | 0.03 to 0.1 µM | ~1 µM | 
CCOC(=O)C(C)(C)Oc1ccc(CCCCOc2nn(C)c(=O)n(CCCC(F)(F)F)c2=O)cc1 [Example 30, Ethyl 2-methyl-2-(4-{4-[2-methyl-3,5-dioxo-4-(4,4,4-trifluoro-butyl)-2,3,4,5-tetrahydro-[1,2,4]triazin-6-yloxy]-butyl}-phenoxy)-propionate] | 0.03 to 0.1 µM | > 10 µM | 
CCCCCCCn1nc(OCCCOc2cccc(SC(C)(C)C(=O)OCC)c2)c(=O)n(C)c1=O [Example 34, Ethyl 2-{3-[3-(2-heptyl-4-methyl-3,5-dioxo-2,3,4,5-tetrahydro-[1,2,4]triazin-6-yloxy)-propoxy]-phenylsulfanyl}-2-methyl-propionate] | > 10 µM | > 10 µM | 
CCCCCCCn1nc(OCCCCOc2cccc(OC(C)(C)C(=O)OCC)c2)c(=O)n(C)c1=O [Example 36, Ethyl 2-{3-[4-(2-heptyl-4-methyl-3,5-dioxo-2,3,4,5-tetrahydro-[1,2,4]triazin-6-yloxy)-butoxy]-phenoxy}-2-methyl-propionate] | 0.3 to 1 µM | 3 to 10 µM | 
CCCCCCCn1nc(OCCCCOc2cccc(SC(C)(C)C(=O)OCC)c2)c(=O)n(C)c1=O [Example 37, Ethyl 2-{3-[4-(2-heptyl-4-methyl-3,5-dioxo-2,3,4,5-tetrahydro-[1,2,4]triazin-6-yloxy)-butoxy]-phenylsulfanyl}-2-methyl-propionate] | > 10 µM | ~10 µM | 
CCCCCCCn1nc(OCCOc2ccc(SC(C)(C)C(=O)OCC)cc2)c(=O)n(C)c1=O [Example 38, Ethyl 2-{4-[2-(2-heptyl-4-methyl-3,5-dioxo-2,3,4,5-tetrahydro-[1,2,4]triazin-6-yloxy)-ethoxy]-phenylsulfanyl}-2-methyl-propionate] | > 10 µM | > 10 µM | 
CCOC(=O)C(C)(C)Oc1ccc(OCCCNc2nn(CCCC(F)(F)F)c(=O)n(C)c2=O)cc1 [Example 44, Ethyl 2-methyl-2-(4-{3-[4-methyl-3,5-dioxo-2-(4,4,4-trifluoro-butyl)-2,3,4,5-tetrahydro-[1,2,4]triazin-6-ylamino]-propoxy}-phenoxy)-propionate] | > 10 µM | 3 to 10 µM | 
CCOC(=O)C(C)(C)Oc1ccc(OCCCNc2nn(C)c(=O)n(CCCC(F)(F)F)c2=O)cc1 [Example 46, Ethyl 2-methyl-2-(4-{3-[2-methyl-3,5-dioxo-4-(4,4,4-trifluoro-butyl)-2,3,4,5-tetrahydro-[1,2,4]triazin-6-ylamino]-propoxy}-phenoxy)-propionate] | 0.3 to 1 µM |  | change in vivo at 10 mg/kg [3, 4]: -13%; change in vivo at 10 mg/kg [3, 5]: -32%
CCCCCCCn1c(=O)c(N(CCCc2ccccc2)CCc2ccc(OC(C)(C)C(=O)OCC)cc2)nn(C)c1=O [Example 117, Ethyl 2-(4-{2-[(4-heptyl-2-methyl-3,5-dioxo-2,3,4,5-tetrahydro-[1,2,4]triazin-6-yl)-(3-phenyl-propyl)-amino]-ethyl}-phenoxy)-2-methyl-propionate] | ~10 µM |  | 

Further lines, with some results ahead:

EC50 [1] | EC50 [2] | Structure (SMILES) | other results
~3 µM | ~10 µM | CCCCCCCn1nc(OCCCc2cccc(OC(C)(C)C(=O)OCC)c2)c(=O)n(C)c1=O [Example 5, Ethyl 2-{3-[3-(2-heptyl-4-methyl-3,5-dioxo-2,3,4,5-tetrahydro-[1,2,4]triazin-6-yloxy)-propyl]-phenoxy}-2-methyl-propionate] | 
3 to 10 µM | ~10 µM | CCOC(=O)C(C)(C)Oc1cccc(CCCCCOc2nn(CCCC(F)(F)F)c(=O)n(C)c2=O)c1 [Example 9, Ethyl 2-methyl-2-(3-{5-[4-methyl-3,5-dioxo-2-(4,4,4-trifluoro-butyl)-2,3,4,5-tetrahydro-[1,2,4]triazin-6-yloxy]-pentyl}-phenoxy)-propionate] | 
0.3 to 1 µM | ~1 µM | CCCCCCCn1nc(OCCCCCc2cccc(OC(C)(C)C(=O)OCC)c2)c(=O)n(C)c1=O [Example 10, Ethyl 2-{3-[5-(2-heptyl-4-methyl-3,5-dioxo-2,3,4,5-tetrahydro-[1,2,4]triazin-6-yloxy)-pentyl]-phenoxy}-2-methyl-propionate] | 
~3 µM | 3 to 10 µM | CCCCCCCn1c(=O)c(OCCCCCc2cccc(OC(C)(C)C(=O)OCC)c2)nn(Cc2ccccc2)c1=O [Example 19, Ethyl 2-{3-[5-(2-benzyl-4-heptyl-3,5-dioxo-2,3,4,5-tetrahydro-[1,2,4]triazin-6-yloxy)-pentyl]-phenoxy}-2-methyl-propionate] | 
 | > 10 µM | CCCCCCCn1nc(OCCc2ccc(OC(C)(C)C(=O)OCC)cc2)c(=O)n(C)c1=O [Example 25, Ethyl 2-{4-[2-(2-heptyl-4-methyl-3,5-dioxo-2,3,4,5-tetrahydro-[1,2,4]triazin-6-yloxy)-ethyl]-phenoxy}-2-methyl-propionate] | 
~3 µM | ~3 µM | CCCCCCCn1nc(OCCCOc2cccc(OC(C)(C)C(=O)OCC)c2)c(=O)n(C)c1=O [Example 33, Ethyl 2-{3-[3-(2-heptyl-4-methyl-3,5-dioxo-2,3,4,5-tetrahydro-[1,2,4]triazin-6-yloxy)-propoxy]-phenoxy}-2-methyl-propionate] | 
1 to 3 µM |  | CCCCCCCN(CCCOc1ccc(SC(C)(C)C(=O)OCC)cc1)c1nn(C)c(=O)n(C)c1=O [Example 53, Ethyl 2-(4-{3-[(2,4-Dimethyl-3,5-dioxo-2,3,4,5-tetrahydro-[1,2,4]triazin-6-yl)-heptyl-amino]-propoxy}-phenylsulfanyl)-2-methyl-propionate] | change in vivo at 2.5 mg/kg ([3]; read-out: Plasma cholesterol): -7%; change in vivo at 10 mg/kg [3, 4]: -28%; Plasma triglycerides ([3]; at 10 mg/kg): inactive at 10
1 to 3 µM |  | CCCCCCCn1c(=O)c(NCCc2cccc(OC(C)(C)C(=O)OCC)c2)nn(C)c1=O [Example 59, Ethyl 2-{3-[2-(4-heptyl-2-methyl-3,5-dioxo-2,3,4,5-tetrahydro-[1,2,4]triazin-6-ylamino)-ethyl]-phenoxy}-2-methyl-propionate] | change in vivo at 2.5 mg/kg ([3]; read-out: Plasma cholesterol): -37%; change in vivo at 2.5 mg/kg ([3]; read-out: Plasma triglycerides): -13%
~1 µM |  | CCCCCCCn1c(=O)c(NCCCc2cccc(OC(C)(C)C(=O)OCC)c2)nn(C)c1=O [Example 67, Ethyl 2-{3-[3-(4-heptyl-2-methyl-3,5-dioxo-2,3,4,5-tetrahydro-[1,2,4]triazin-6-ylamino)-propyl]-phenoxy}-2-methyl-propionate] | change in vivo at 10 mg/kg [3, 4]: -14%; change in vivo at 10 mg/kg [3, 5]: -23%
~10 µM |  | CCCCCCCn1c(=O)c(N(CCc2ccccc2)CCc2ccc(OC(C)(C)C(=O)OCC)cc2)nn(C)c1=O [Example 116, Ethyl 2-(4-{2-[(4-heptyl-2-methyl-3,5-dioxo-2,3,4,5-tetrahydro-[1,2,4]triazin-6-yl)-phenethyl-amino]-ethyl}-phenoxy)-2-methyl-propionate] | 
